Measured values as given in patent publication US20160376240A1, “6 Phenyl or 6 Pyridin 3 YL Indazole Derivatives and Methods of Use” (ABBVIE INC., priority 2014, published 2016).

Target: T1, TrkA (Homo sapiens, UniProt P04629)
T1 construct: purchased Invitrogen PV3144
Assay: TrkA kinase inhibition, HTRF assay
Assay type: biochemical
Conditions: LCK peptide substrate 125 nM, TrkA 2-10 nM pre-incubated with ATP 200 μM
Experimental: TrkA, TrkB, and TrkC enzymes were obtained from Invitrogen (as catalog numbers PV3144, PV3616, and PV3617, respectively). The ability of a compound to inhibit the enzymatic activity of the TrkA, TrkB, and TrkC enzymes was determined in separate assays. Enzyme activity was measured in an HTRF® (homogeneous time resolved fluorescence) assay, which detects enzymatic phosphorylation of a biotinylated synthetic peptide substrate (an LCK peptide analog, biotin-ahx-GAEEEIYAAFFA, from Genemed Synthesis). Phosphorylation is assessed by HTRF® in the presence of an anti-phosphotyrosine antibody conjugated to Eu^3+ cryptate (Cisbio) as donor fluorophore, and streptavidin conjugated to allophycocyanin (ProZyme) as acceptor fluorophore. The HTRF® signal was detected at two different wavelengths (620 nm and 665 nm) which were used to calculate the fluorescence ratio.
Each enzyme was titrated to a concentration optimized to ensure accurate measurement of the initial reaction rate. To allow the Trk enzymes to undergo activation and auto-phosphorylation, a 20 minute pre-incubation with ATP was carried out (at twice the final targeted enzyme and ATP concentration) prior to addition of test compound and the peptide substrate.
TrkA in vitro assays were performed by pre-incubating TrkA (2-10 nM) with ATP (200 μM) for 20 minutes at ambient temperature in 50 mM HEPES pH 7.4, 10 mM MgCl2, 2 mM MnCl2, 100 μM Na3VO4, 1 mM dithiothreitol, 0.01% BSA (bovine serum albumin). Then, to the activated Trk enzyme mixture was added the test compound in 2% dimethyl sulfoxide. After 10 minutes, the peptide substrate (125 nM) was added. After 1 hour, enzyme reactions were terminated by addition of equal reaction volumes of detection/stop reagent (containing 0.2 μg/mL anti-phosphotyrosine monoclonal antibody labeled with europium from Cisbio (catalog# PT66-K), and 4 μg/mL PhycoLink® Streptavidin-Allophycocyanin conjugate from ProZyme (catalog# PJ25S) in 60 mM EDTA in 40 mM HEPES pH 7.4, 480 mM KF, 0.01% Tween® 20 and 0.1% BSA bovine serum albumin) Reaction plates were stored at 4° C. overnight before reading the fluorescence ratio signal on a PerkinElmer EnVision™ fluorescence detector. Individual reaction wells were stopped at time points to obtain reaction rates. The test inhibitor compounds were assayed in duplicate, at half-log serial dilutions over a range of concentrations (e.g. starting at 50 μM or 5 μM as the high compound concentration). The percent Trk enzyme inhibition was calculated from the initial rates of the inhibited reactions relative to the uninhibited control. IC50 values were calculated by fitting the inhibition percent to the concentration of inhibitor [I] in the assay in equation 1 below, to solve for the IC50.
Inhibition %=100[I]/([I]+[IC50]) equation 1

T1 sequence (P04629 33-796): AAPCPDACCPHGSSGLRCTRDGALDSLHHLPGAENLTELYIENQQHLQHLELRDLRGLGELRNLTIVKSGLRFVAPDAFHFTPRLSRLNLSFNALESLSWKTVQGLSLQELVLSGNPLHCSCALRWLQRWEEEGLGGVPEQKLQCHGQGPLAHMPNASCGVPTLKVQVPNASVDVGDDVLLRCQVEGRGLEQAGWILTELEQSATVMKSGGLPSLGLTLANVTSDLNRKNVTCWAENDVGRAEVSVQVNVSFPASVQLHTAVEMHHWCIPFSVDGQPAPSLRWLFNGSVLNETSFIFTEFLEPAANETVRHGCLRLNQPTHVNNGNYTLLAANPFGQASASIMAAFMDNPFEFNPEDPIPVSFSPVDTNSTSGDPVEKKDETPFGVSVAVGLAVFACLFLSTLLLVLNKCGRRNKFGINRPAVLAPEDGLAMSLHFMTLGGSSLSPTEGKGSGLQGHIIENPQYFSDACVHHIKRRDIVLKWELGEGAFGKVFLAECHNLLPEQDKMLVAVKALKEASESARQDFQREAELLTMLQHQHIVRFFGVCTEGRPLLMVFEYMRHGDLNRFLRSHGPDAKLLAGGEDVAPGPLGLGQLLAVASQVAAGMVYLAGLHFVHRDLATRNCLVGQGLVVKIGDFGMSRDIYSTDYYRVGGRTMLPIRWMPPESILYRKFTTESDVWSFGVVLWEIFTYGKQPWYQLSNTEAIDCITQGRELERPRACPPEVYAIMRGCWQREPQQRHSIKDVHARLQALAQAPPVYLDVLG

Compound: CC(=O)c1ccc(-c2cc(OC3CCOCC3)c3c(N)n[nH]c3c2)cc1N1CCN(c2ccc(F)cc2)CC1 [Example 17, 1-{4-[3-amino-4-(tetrahydro-2H-pyran-4-yloxy)-1H-indazol-6-yl]-2-[4-(4-fluorophenyl)piperazin-1-yl]phenyl}ethanone]
- IC50: 13.4 nM

Compound: CC(=O)c1ccc(-c2cc(OC3CCOCC3)c3c(N)n[nH]c3c2)cc1N1CCN(CCC(C)(C)C)CC1 [Example 18, 1-{4-[3-amino-4-(tetrahydro-2H-pyran-4-yloxy)-1H-indazol-6-yl]-2-[4-(3,3-dimethylbutyl)piperazin-1-yl]phenyl}ethanone]
- IC50: 36.4 nM

Compound: CC(=O)c1ccc(-c2cc(OC3CCOCC3)c3c(N)n[nH]c3c2)cc1N1CCN(C2CCCCC2)CC1 [Example 19, 1-{4-[3-amino-4-(tetrahydro-2H-pyran-4-yloxy)-1H-indazol-6-yl]-2-(4-cyclohexylpiperazin-1-yl)phenyl}ethanone]
- IC50: 38.1 nM

Compound: CC(=O)c1ccc(-c2cc(OC3CCOCC3)c3c(N)n[nH]c3c2)cc1N1CCN(C(=O)C2CC2)CC1 [Example 20, 1-{4-[3-amino-4-(tetrahydro-2H-pyran-4-yloxy)-1H-indazol-6-yl]-2-[4-(cyclopropylcarbonyl)piperazin-1-yl]phenyl}ethanone]
- IC50: 101 nM

Compound: CC(=O)c1ccc(-c2cc(OC3CCOCC3)c3c(N)n[nH]c3c2)cc1N1CCN(c2nccs2)CC1 [Example 21, 1-{4-[3-amino-4-(tetrahydro-2H-pyran-4-yloxy)-1H-indazol-6-yl]-2-[4-(1,3-thiazol-2-yl)piperazin-1-yl]phenyl}ethanone]
- IC50: 33.3 nM

Compound: CC(O)c1ccc(-c2cc(OC3CCOCC3)c3c(N)n[nH]c3c2)cc1N1CCN(c2cccnc2)CC1 (stereo not shown) [Example 22, 1-{4-[3-amino-4-(tetrahydro-2H-pyran-4-yloxy)-1H-indazol-6-yl]-2-[4-(pyridin-3-yl)piperazin-1-yl]phenyl}ethanol]
- IC50: 254 nM

Compound: Nc1n[nH]c2cc(-c3ccc(C(=O)NC4CC4)c(N4CCN(c5cccnc5)CC4)c3)cc(OC3CCOCC3)c12 [Example 24, 4-[3-amino-4-(tetrahydro-2H-pyran-4-yloxy)-1H-indazol-6-yl]-N-cyclopropyl-2-[4-(pyridin-3-yl)piperazin-1-yl]benzamide]
- IC50: 20.4 nM

Compound: CC(C)(C)C(=O)N1CCN(c2cc(-c3cc(OC4CCOCC4)c4c(N)n[nH]c4c3)ccc2C(=O)NC2CC2)CC1 [Example 25, 4-[3-amino-4-(tetrahydro-2H-pyran-4-yloxy)-1H-indazol-6-yl]-N-cyclopropyl-2-[4-(2,2-dimethylpropanoyl)piperazin-1-yl]benzamide]
- IC50: 188 nM

Compound: CC(Oc1cc(-c2ccc(C(=O)NC3CC3)c(N3CCN(c4ccccc4)CC3)c2)cc2[nH]nc(N)c12)C(F)(F)F (stereo not shown) [Example 26, 4-{3-amino-4-[(1,1,1-trifluoropropan-2-yl)oxy]-1H-indazol-6-yl}-N-cyclopropyl-2-(4-phenylpiperazin-1-yl)benzamide]
- IC50: 58.1 nM

Compound: CC(Oc1cc(-c2ccc(C(=O)NC3CC3)c(N3CCN(C4CC4)CC3)c2)cc2[nH]nc(N)c12)C(F)(F)F (stereo not shown) [Example 27, 4-{3-amino-4-[(1,1,1-trifluoropropan-2-yl)oxy]-1H-indazol-6-yl}-N-cyclopropyl-2-(4-cyclopropylpiperazin-1-yl)benzamide]
- IC50: 251 nM

Compound: CC(Oc1cc(-c2ccc(C(=O)NC3CC3)c(N3CCN(c4cccnc4)CC3)c2)cc2[nH]nc(N)c12)C(F)(F)F (stereo not shown) [Example 28, 4-{3-amino-4-[(1,1,1-trifluoropropan-2-yl)oxy]-1H-indazol-6-yl}-N-cyclopropyl-2-[4-(pyridin-3-yl)piperazin-1-yl]benzamide]
- IC50: 41 nM

Compound: CNC(=O)c1ccc(-c2cc(OC3CCOCC3)c3c(N)n[nH]c3c2)cc1N1CCN(c2cccnc2)CC1 [Example 31, 4-[3-amino-4-(tetrahydro-2H-pyran-4-yloxy)-1H-indazol-6-yl]-N-methyl-2-[4-(pyridin-3-yl)piperazin-1-yl]benzamide]
- IC50: 42.1 nM

Compound: CNC(=O)c1ccc(-c2cc(OC3CCOCC3)c3c(N)n[nH]c3c2)cc1N1CCN(C(=O)C2CC2)CC1 [Example 32, 4-[3-amino-4-(tetrahydro-2H-pyran-4-yloxy)-1H-indazol-6-yl]-2-[4-(cyclopropylcarbonyl)piperazin-1-yl]-N-methylbenzamide]
- IC50: 376 nM

Compound: CNC(=O)c1ccc(-c2cc(OC(C)C(F)(F)F)c3c(N)n[nH]c3c2)cc1N1CCN(c2ccccc2)CC1 (stereo not shown) [Example 33, 4-{3-amino-4-[(1,1,1-trifluoropropan-2-yl)oxy]-1H-indazol-6-yl}-N-methyl-2-(4-phenylpiperazin-1-yl)benzamide]
- IC50: 28 nM

Compound: CNC(=O)c1ccc(-c2cc(OC(C)C(F)(F)F)c3c(N)n[nH]c3c2)cc1N1CCN(c2cccnc2)CC1 (stereo not shown) [Example 36, 4-{3-amino-4-[(1,1,1-trifluoropropan-2-yl)oxy]-1H-indazol-6-yl}-N-methyl-2-[4-(pyridin-3-yl)piperazin-1-yl]benzamide]
- IC50: 25.8 nM

Compound: CNC(=O)c1ccc(-c2cc(OC(C)C(F)(F)F)c3c(N)n[nH]c3c2)cc1N1CCN(CCN2CCOCC2)CC1 (stereo not shown) [Example 37, 4-{3-amino-4-[(1,1,1-trifluoropropan-2-yl)oxy]-1H-indazol-6-yl}-N-methyl-2-{4-[2-(morpholin-4-yl)ethyl]piperazin-1-yl}benzamide]
- IC50: 667 nM

Compound: CNC(=O)c1ccc(-c2cc(OC(C)C(F)(F)F)c3c(N)n[nH]c3c2)cc1N1CCN(c2cnccn2)CC1 (stereo not shown) [Example 38, 4-{3-amino-4-[(1,1,1-trifluoropropan-2-yl)oxy]-1H-indazol-6-yl}-N-methyl-2-[4-(pyrazin-2-yl)piperazin-1-yl]benzamide]
- IC50: 31.2 nM

Compound: CNC(=O)c1ccc(-c2cc(O[C@@H](C)C(F)(F)F)c3c(N)n[nH]c3c2)cc1N1CCN(c2ccccc2)CC1 [Example 39, 4-(3-amino-4-{[(2S)-1,1,1-trifluoropropan-2-yl]oxy}-1H-indazol-6-yl)-N-methyl-2-(4-phenylpiperazin-1-yl)benzamide]
- IC50: 41.7 nM

Compound: CNC(=O)c1ccc(-c2cc(O[C@@H](C)C(F)(F)F)c3c(N)n[nH]c3c2)cc1N1CCN(CCC(C)(C)C)CC1 [Example 40, 4-(3-amino-4-{[(2S)-1,1,1-trifluoropropan-2-yl]oxy}-1H-indazol-6-yl)-2-[4-(3,3-dimethylbutyl)piperazin-1-yl]-N-methylbenzamide]
- IC50: 71.4 nM

Compound: CNC(=O)c1ccc(-c2cc(O[C@@H](C)C(F)(F)F)c3c(N)n[nH]c3c2)cc1N1CCN(c2cccnc2)CC1 [Example 41, 4-(3-amino-4-{[(2S)-1,1,1-trifluoropropan-2-yl]oxy}-1H-indazol-6-yl)-N-methyl-2-[4-(pyridin-3-yl)piperazin-1-yl]benzamide]
- IC50: 29.2 nM

Compound: CNC(=O)c1ccc(-c2cc(O[C@@H](C)C(F)(F)F)c3c(N)n[nH]c3c2)cc1N1CCN(C2CCC2)CC1 [Example 42, 4-(3-amino-4-{[(2S)-1,1,1-trifluoropropan-2-yl]oxy}-1H-indazol-6-yl)-2-(4-cyclobutylpiperazin-1-yl)-N-methylbenzamide]
- IC50: 422 nM

Compound: CNC(=O)c1ccc(-c2cc(O[C@@H](C)C(F)(F)F)c3c(N)n[nH]c3c2)cc1N1CCN(c2ncccn2)CC1 [Example 43, 4-(3-amino-4-{[(2S)-1,1,1-trifluoropropan-2-yl]oxy}-1H-indazol-6-yl)-N-methyl-2-[4-(pyrimidin-2-yl)piperazin-1-yl]benzamide]
- IC50: 63.1 nM

Compound: CNC(=O)c1ccc(-c2cc(O[C@@H](C)C(F)(F)F)c3c(N)n[nH]c3c2)cc1N1CCN(C2CCCC2)CC1 [Example 44, 4-(3-amino-4-{[(2S)-1,1,1-trifluoropropan-2-yl]oxy}-1H-indazol-6-yl)-2-(4-cyclopentylpiperazin-1-yl)-N-methylbenzamide]
- IC50: 25.3 nM

Compound: CNC(=O)c1ccc(-c2cc(O[C@@H](C)C(F)(F)F)c3c(N)n[nH]c3c2)cc1N1CCN(C(=O)C(C)(C)C)CC1 [Example 45, 4-(3-amino-4-{[(2S)-1,1,1-trifluoropropan-2-yl]oxy}-1H-indazol-6-yl)-2-[4-(2,2-dimethylpropanoyl)piperazin-1-yl]-N-methylbenzamide]
- IC50: 300 nM

Compound: CNC(=O)c1ccc(-c2cc(O[C@@H](C)C(F)(F)F)c3c(N)n[nH]c3c2)cc1N1CCN(c2cnccn2)CC1 [Example 46, 4-(3-amino-4-{[(2S)-1,1,1-trifluoropropan-2-yl]oxy}-1H-indazol-6-yl)-N-methyl-2-[4-(pyrazin-2-yl)piperazin-1-yl]benzamide]
- IC50: 32.5 nM
